Test results from patent publication US5851537A (priority 1997, dated 1998).
Values after ≈ are worked out from the molar mass of the structure shown.

Key:
[1] = test system: cultured normal keratinocytes; conditions: in vitro; cited from earlier work
[2] = test system: psoriasis and various cutaneous malignancies; conditions: cited from earlier work
[3] = test system: total polyamines; assay: phase IIb study, total polyamines; type: in vivo, human; conditions: 10% (w/w) topical, six months, compared to placebo
From the text: (§1) Forty-eight participants with severe actinic keratoses (AKs) on their forearms (i.e. at least ten well circumscribed lesions nonlateral, sun-exposed surfaces) completed a one month run-in on placebo ointment applied twice daily to the affected areas. […] After six months of treatment, all measurements were repeated. […] The study was described at the thirty-second annual meeting of the American Society of Clinical Oncology on May 18-21, 1996.

[4] = test system: ornithine decarboxylase; conditions: time and concentration dependence, reversibility; cited from earlier work
[5] = test system: human skin; assay: in vitro transdermal penetration, human skin (diffusion cells); conditions: 24 hours, 37° C., 10% α-DFMO
[6] = test system: UVB induced skin cancer; conditions: cited from earlier work
[7] = oral, single 0.5 g/m^2 dose given daily, cited from earlier work
[8] = test system: psoriatic lesions; conditions: cited from earlier work
[9] = oral, humans; cited from earlier work
[10] = test system: mouse skin; assay: in vitro transdermal penetration, mouse skin (diffusion cells); type: in vitro ADME, BALB/c mice
[11] = in vivo
From the text: as §1

[12] = chemical stability of α-DFMO in cream, HPLC; type: physicochemical; conditions: Vanicream, 4° C., six month time point; 262800 min
Protocol: The reverse phase (C-18 column, Alitech Associates, 150 mm×4.6 mm, […]) assay was performed with a 30 minute gradient elution using two mobile phases (A and B) containing aqueous buffer and acetonitrile, respectively. Mobile phase A contained 100 mM sodium acetate, 15 mM triethylamine, and […] sodium EDTA dissolved in water at pH 5.0. Mobile phase B was acetonitrile UV® (Burdick & Jackson, Muskegon, Mich.). The starting proportion, A:B, was 92:8, at 18 min. it was 80:20; at 19-21 min. 40:60; and at 22-30 min. 92:8 [21]. The mobile phase was pumped at 1.2 mL/min. using a Perkin Elmer Biocompatible Binary Pump, a Hitachi AS-2000 Autosampler and a Hewlett Packard Series 1050 Solvent Programmer.
For the stability assays, the 10% cream formulation was stored at 4° C. for up to 6 months and 10 μL aliquots were removed weekly and analyzed by HPLC after extraction using 1 mL distilled water.

[13] = test system: human skin; assay: in vitro
Protocol: (§2) These were minced by scissors and then sonicated for 30 seconds in 100 μL of (0.4 m) HClO4 containing 10 mM internal standard GABA. To this mixture, 100 μL of water was added and the contents were then centrifuged at 10,000×G for 3 min. A 10 μL aliquot of supernatant was added to 40 μL of sodium tetraborate solution (pH 9.3) and mixed with […] the derivatizing agent 6-aminoquinolyi-N-hydroxysuccinimidyl carbamate. This mixture was then heated for 10 min. at 50° C. and a 20 μL aliquot was injected into the HPLC.

[14] = test system: mouse skin; assay: α-DFMO content of mouse skin samples; conditions: 10% α-DFMO in Vanicream, 37° C.
Protocol: as §2

[15] = in vitro; conditions: skin, topical or ocular
Protocol: as §2

[16] = test system: BALB/c mice; assay: four week topical toxicity study in mice; type: in vivo
From the text: Adult female BALB/c mice, 25-31 gm. weight, were obtained from Jackson Laboratories, Bar Harbor, Me. For toxicology tests, the mice were housed 5/cage and received standard lab chow and tap water ad libitum. A 12-hour light/dark cycle in a humidified atmosphere was utilized. Toxicology Study A cohort of 20 mice were de-haired over a 2 cm^2 dorsal area using the topical depilatory agent, Nair® Lotion (Carter Wallace, Inc., New York, N.Y.). […] The daily dose was delivered by a positive displacement pipette (Micro-Man®, Gilson Scientific, Woburn, Mass.).
Using the murine total body surface area conversion nomogram of Freireich et al., the daily doses for the 3 cream concentrations of 1%, 5% and 10% were 71.4 mg/m^2, 357 mg/m^2, 714 mg/m^2. For the total four week period, the cumulative doses were 1.43 g/m^2, 7.14 g/m^2 and 14.28 g/m^2. […] The skin application sites were observed daily for evidence of any local toxicity (erythema, induration or ulceration) and the animals were weighed weekly. At the end of the four week treatment period, the mice were sacrificed by rapid cervical dislocation and blood samples were obtained for quantifying renal function (BUN, creatinine), hepatic function (SGOT-SGPT, bilirubin), electrolytes (Na^+ K^+ Cl^-, ^- HCO3^-), hematologic indices (WBC with differential, RBC, platelets) and glucose (Animal Diagnostic Laboratories,Tucson, Ariz.).

[17] = test system: mouse epidermis; conditions: five percent solution, in vitro; cited from earlier work
[18] = test system: human skin
[19] = phase IIb study, α-DFMO in skin and blood
From the text: as §1

[20] = solubility limit in the vehicle; type: physicochemical; conditions: in the particular vehicle used
From the text: Having thus described the invention, it will be apparent to those of skill in the art that modifications can be made within the scope of the invention. […] Also, the vehicle cannot contain absorption enhancers.

[21] = test system: skin ODC; conditions: five of seven subjects, 6 hours after oral dosing, 0.5 g/m^2; cited from earlier work
[22] = test system: actinic keratoses (AKs); assay: phase IIb study, number of actinic keratoses; type: in vivo, human; conditions: 10% (w/w) topical, six months, compared to placebo
From the text: as §1

[23] = ten percent cream with absorption enhancer, ten patients

CC(/C=N/NC(=N)N)=N\NC(=N)N [MGBG, mitoguazone]
proliferation of cultured normal keratinocytes [1]: decrease the proliferation | skin irritation ([2]; in vivo): highly irritating | therapeutic effects in psoriasis and various cutaneous malignancies ([2]; topically or intralesionally): produces therapeutic effects

NCCC[C@](N)(C(=O)O)C(F)F [α-DFMO, alpha-difluoromethylornithine]
suppression of total polyamines [3]: 21% | inhibition of ornithine decarboxylase [4]: time and concentration dependent but is irreversible | degree of penetration [5]: 0.7 % of the applied concentration | body weight loss ([6]; 1% drinking water solution): 16% | hyperactivity ([6]; 1% drinking water solution): sound-induced hyperactivity | UVB induced skin cancer incidence ([6]; 1% solution in drinking water, reduced from 38%): 9% | UVB-induced immunosuppression ([6]; oral α-DFMO regimen, 1% in drinking water): prevented UVB-induced immunosuppression | plasma concentration×time product [7]: 311 μm×hr | terminal phase half life [7]: 3.5 h | Cmax ([7]; read-out: peak α-DFMO plasma concentrations): 47.1 µM | systemic uptake ([8]; human, in vivo): systemic uptake in the patients | improvement in psoriatic lesions [8, 23]: marginal improvement | reduction of cutaneous spermine levels [8, 23]: sixty-six | ototoxicity [9]: associated with ototoxicity | uptake into and penetration through mouse skin [10]: significant α-DFMO uptake into and penetration through mouse skin | degree of transdermal penetration versus azone-containing formulation ([10]; 10% α-DFMO in Vanicream, mice, vs 5% α-DFMO with azone): substantially less | calculated penetration rate ([10]; mouse skin, 10% α-DFMO formulation in Vanicream): 3.6 μg/cm^2 /hour | mean percent uptake (transdermal penetration) ([10]; mouse skin, 37° C., 24 hours, 10% α-DFMO): 61.53 % of the applied dose | time of maximal transdermal penetration ([10]; mouse skin, 37° C., Vanicream): 24 h | time of maximal penetration ([10]; mouse skin, hydrophilic ointment U.S.P., 37° C.): 12 h | participants with moderately severe skin rash [11]: one | participants with skin rash in the area of DFMO application [11]: Four | systemic toxicities [11]: no systemic toxicities | loss of α-DFMO [12]: < 1% | intradermal levels [13]: substantial intradermal levels | time of peak uptake into human skin [13]: 24 h | concentration ([13]; human, skin, topical or ocular): 1360 µM | time of peak uptake into mouse skin [14]: 4 h | concentration at 24 h ([15]; human): 323000 ng/g | concentration at 4 h ([15]; mouse): 7.25e+06 ng/g | drug related alterations in weight gain ([16]; mouse, in vivo): without drug related alterations in weight gain | hair regrowth ([16]; mouse, in vivo): proceeded normally | local skin irritation ([16]; mouse, in vivo): no evidence of local skin irritation | serum enzymes, electrolytes or hematologic parameters ([16]; mouse, in vivo): no alterations | survival ([16]; topical 1%, 5% or 10% cream, through the study period): survived through the study period | toxicity in mice (summary) ([16]; topical formulation): nontoxic in mice | putrescine levels [17]: twenty-five | spermine and spermidine levels [17]: not affected | synthesis of DNA [17]: blocks the synthesis of DNA | time until transdermal human skin penetration apparent [18]: > 20 h | α-DFMO in blood ([19]; 10% (w/w) topical, six months): not detected in blood | systemic uptake ([19]; in vivo): no systemic uptake | treated forearms with high DFMO skin levels ([19]; in vivo): thirteen | solubility [20]: ~220 mg/mL (≈ 1210 mM) | reduction in skin ODC levels [21]: ≥ 50% | reduction in the number of AKs [22]: 21%
